Test results reported in the supplement of paper PMC10307832.

Legend:
Experiment in all cases: relative viability (nuclei count vs DMSO), 5 days (fraction); higher = more cells survive
EPLC-272H = test system: EPLC-272H
Outline: (§1)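 After 5 days of treatment, lung cancer cells in 1536-well plates were fixed and stained in a single step (final 0.05% Triton X-100, 1% formaldehyde, 1 ug/ml Hoechst) and their nuclei counted on 4× images. Treatment had been applied by pin tool the day after seeding as one drug alone or as a fixed anchor-drug dose with five library-drug doses (not always all listed) in √10 steps. Relative viability is the nuclei count of treated wells divided by that of vehicle wells, and values are medians of duplicate plates.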

NCI-H1651 = test system: NCI-H1651
Outline: as §1

H3255 = test system: H3255
Outline: as §1

ChaGo-K-1 = test system: ChaGo-K-1
Outline: as §1

LU99A = test system: LU99A
Outline: as §1

NCI-H2023 = test system: NCI-H2023
Outline: as §1

EMC-BAC-2 = test system: EMC-BAC-2
Outline: as §1

LCLC-103H = test system: LCLC-103H
Outline: as §1

HCC-44 = test system: HCC-44
Outline: as §1

NCI-H2085 = test system: NCI-H2085
Outline: as §1

COR-L23 = test system: COR-L23
Outline: as §1

NCI-H1563 = test system: NCI-H1563
Outline: as §1

NCI-H1793 = test system: NCI-H1793
Outline: as §1

NCI-H650 = test system: NCI-H650
Outline: as §1

NCI-H520 = test system: NCI-H520
Outline: as §1

NCI-H2405 = test system: NCI-H2405
Outline: as §1

NCI-H1395 = test system: NCI-H1395
Outline: as §1

HCC-827 = test system: HCC-827
Outline: as §1

NCI-H838 = test system: NCI-H838
Outline: as §1

NCI-H1944 = test system: NCI-H1944
Outline: as §1

NCI-H2087 = test system: NCI-H2087
Outline: as §1

SK-MES-1 = test system: SK-MES-1
Outline: as §1

In the case of O=c1cc(-c2cccc3c2Sc2ccccc2S3)oc(N2CCOCC2)c1 + COc1cccc2cc(-c3nc([C@H]4CC[C@H](C(=O)O)CC4)n4ncnc(N)c34)[nH]c12 [OSI-027] (partner 0.5 µM), the relative viability (EPLC-272H; first compound 0.08 µM) is reported as 0.254, the relative viability (EPLC-272H; first compound 0.253 µM) is reported as 0.279 and the relative viability (EPLC-272H; first compound 0.8 µM) is reported as 0.254. For the same compound, the relative viability (EPLC-272H; first compound 2.53 µM) was 0.251, the relative viability (EPLC-272H; first compound 8 µM) was 0.278 and the relative viability (NCI-H1651; first compound 0.08 µM) was 0.625. For the same compound, the relative viability (NCI-H1651; first compound 0.253 µM) was 0.767, the relative viability (NCI-H1651; first compound 0.8 µM) was 0.711 and the relative viability (NCI-H1651; first compound 2.53 µM) was 0.6. It also gave a relative viability (NCI-H1651; first compound 8 µM) of 0.702, a relative viability (H3255; first compound 0.08 µM) of 0.61 and a relative viability (H3255; first compound 0.253 µM) of 0.604. For the same compound, the relative viability (H3255; first compound 0.8 µM) was 0.541, the relative viability (H3255; first compound 2.53 µM) was 0.569 and the relative viability (H3255; first compound 8 µM) was 0.671. The relative viability (ChaGo-K-1; first compound 0.08 µM) was 0.524, the relative viability (ChaGo-K-1; first compound 0.253 µM) was 0.615 and the relative viability (ChaGo-K-1; first compound 0.8 µM) was 0.479. It also gave a relative viability (ChaGo-K-1; first compound 2.53 µM) of 0.385, a relative viability (ChaGo-K-1; first compound 8 µM) of 0.63 and a relative viability (LU99A; first compound 0.08 µM) of 0.282. It also gave a relative viability (LU99A; first compound 0.253 µM) of 0.285, a relative viability (LU99A; first compound 0.8 µM) of 0.308 and a relative viability (LU99A; first compound 2.53 µM) of 0.335. It also gave a relative viability (LU99A; first compound 8 µM) of 0.303, a relative viability (NCI-H2023; first compound 0.08 µM) of 0.353 and a relative viability (NCI-H2023; first compound 0.253 µM) of 0.379. For the same compound, the relative viability (NCI-H2023; first compound 0.8 µM) was 0.396, the relative viability (NCI-H2023; first compound 2.53 µM) was 0.315 and the relative viability (NCI-H2023; first compound 8 µM) was 0.256. It also gave a relative viability (EMC-BAC-2; first compound 0.08 µM) of 0.341, a relative viability (EMC-BAC-2; first compound 0.253 µM) of 0.416 and a relative viability (EMC-BAC-2; first compound 0.8 µM) of 0.354. The relative viability (EMC-BAC-2; first compound 2.53 µM) was 0.392, the relative viability (EMC-BAC-2; first compound 8 µM) was 0.406 and the relative viability (LCLC-103H; first compound 0.08 µM) was 0.434. For the same compound, the relative viability (LCLC-103H; first compound 0.253 µM) was 0.489, the relative viability (LCLC-103H; first compound 0.8 µM) was 0.504 and the relative viability (LCLC-103H; first compound 2.53 µM) was 0.481. For the same compound, the relative viability (LCLC-103H; first compound 8 µM) was 0.454, the relative viability (HCC-44; first compound 0.08 µM) was 0.419 and the relative viability (HCC-44; first compound 0.253 µM) was 0.561. For the same compound, the relative viability (HCC-44; first compound 2.53 µM) was 0.343, the relative viability (HCC-44; first compound 8 µM) was 0.499 and the relative viability (NCI-H2085; first compound 0.08 µM) was 0.635. The relative viability (NCI-H2085; first compound 0.253 µM) was 0.88, the relative viability (NCI-H2085; first compound 0.8 µM) was 0.695 and the relative viability (NCI-H2085; first compound 2.53 µM) was 0.512. The relative viability (NCI-H2085; first compound 8 µM) was 0.525, the relative viability (COR-L23; first compound 0.08 µM) was 0.8 and the relative viability (COR-L23; first compound 0.253 µM) was 1.21. It also gave a relative viability (COR-L23; first compound 0.8 µM) of 0.892, a relative viability (COR-L23; first compound 2.53 µM) of 0.801 and a relative viability (COR-L23; first compound 8 µM) of 1. It also gave a relative viability (NCI-H1563; first compound 0.08 µM) of 0.728, a relative viability (NCI-H1563; first compound 0.253 µM) of 0.756 and a relative viability (NCI-H1563; first compound 0.8 µM) of 0.77. For the same compound, the relative viability (NCI-H1563; first compound 2.53 µM) was 0.717, the relative viability (NCI-H1563; first compound 8 µM) was 0.676 and the relative viability (NCI-H1793; first compound 0.08 µM) was 0.227. The relative viability (NCI-H1793; first compound 0.253 µM) was 0.29, the relative viability (NCI-H1793; first compound 0.8 µM) was 0.248 and the relative viability (NCI-H1793; first compound 2.53 µM) was 0.227. It also gave a relative viability (NCI-H1793; first compound 8 µM) of 0.267, a relative viability (NCI-H650; first compound 0.08 µM) of 0.469 and a relative viability (NCI-H650; first compound 0.253 µM) of 0.548. It also gave a relative viability (NCI-H650; first compound 0.8 µM) of 0.508, a relative viability (NCI-H650; first compound 8 µM) of 0.562 and a relative viability (NCI-H520; first compound 0.08 µM) of 0.297. The relative viability (NCI-H520; first compound 0.253 µM) was 0.257, the relative viability (NCI-H520; first compound 0.8 µM) was 0.297 and the relative viability (NCI-H520; first compound 2.53 µM) was 0.216. It also gave a relative viability (NCI-H520; first compound 8 µM) of 0.296, a relative viability (NCI-H2405; first compound 0.08 µM) of 0.604 and a relative viability (NCI-H2405; first compound 0.253 µM) of 0.647. The relative viability (NCI-H2405; first compound 0.8 µM) was 0.61, the relative viability (NCI-H2405; first compound 2.53 µM) was 0.61 and the relative viability (NCI-H2405; first compound 8 µM) was 0.618. The relative viability (NCI-H1395; first compound 0.08 µM) was 0.594, the relative viability (NCI-H1395; first compound 0.253 µM) was 0.581 and the relative viability (NCI-H1395; first compound 0.8 µM) was 0.601. It also gave a relative viability (NCI-H1395; first compound 2.53 µM) of 0.577, a relative viability (NCI-H1395; first compound 8 µM) of 0.683 and a relative viability (HCC-827; first compound 0.08 µM) of 0.802. The relative viability (HCC-827; first compound 0.253 µM) was 0.877, the relative viability (HCC-827; first compound 0.8 µM) was 0.947 and the relative viability (HCC-827; first compound 2.53 µM) was 0.643. The relative viability (HCC-827; first compound 8 µM) was 0.897, the relative viability (NCI-H838; first compound 0.08 µM) was 0.344 and the relative viability (NCI-H838; first compound 0.253 µM) was 0.417. It also gave a relative viability (NCI-H838; first compound 0.8 µM) of 0.312, a relative viability (NCI-H838; first compound 2.53 µM) of 0.339 and a relative viability (NCI-H838; first compound 8 µM) of 0.41. It also gave a relative viability (NCI-H1944; first compound 0.08 µM) of 0.376, a relative viability (NCI-H1944; first compound 0.253 µM) of 0.403 and a relative viability (NCI-H1944; first compound 0.8 µM) of 0.367. The relative viability (NCI-H1944; first compound 2.53 µM) was 0.34, the relative viability (NCI-H1944; first compound 8 µM) was 0.38 and the relative viability (NCI-H2087; first compound 0.08 µM) was 0.352. For the same compound, the relative viability (NCI-H2087; first compound 0.253 µM) was 0.649, the relative viability (NCI-H2087; first compound 0.8 µM) was 0.589 and the relative viability (NCI-H2087; first compound 2.53 µM) was 0.416. It also gave a relative viability (NCI-H2087; first compound 8 µM) of 0.452, a relative viability (SK-MES-1; first compound 0.08 µM) of 0.534 and a relative viability (SK-MES-1; first compound 0.253 µM) of 0.633. For the same compound, the relative viability (SK-MES-1; first compound 0.8 µM) was 0.601, the relative viability (SK-MES-1; first compound 2.53 µM) was 0.521 and the relative viability (SK-MES-1; first compound 8 µM) was 0.547.
